We go through 32 compounds from patent publication EP2818471A1, “Nitrogen bicyclic compounds as inhibitors for Scyl1 and Grk5” (Max-Planck-Gesellschaft zur Förderung der Wissenschaften …, priority 2013, dated 2014).

The subject of the assay is beta-TC6 cells. Briefly: Insulin HTRF assay, relative activity Ar normalized to sunitinib. To be noted: Mus musculus, normalized to positive control sunitinib (5 µM = 100%), Table 10. The class given is cell-based. Summed up:
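Relative activity Ar was scaled between 0% and 100% controls, with sunitinib at 5 µM f.c. as reference. Insulin released by beta-TC6 cells was quantified by sandwich HTRF (Eu-cryptate/XL665 antibodies, 120 min RT). Cells had been seeded 24 or 48 h, then treated 2–4 h at 37°C in induction buffer, 0.5% DMSO.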
Take `COc1cccc(-c2ccc3ncc(-c4cccc(Cl)c4)n3n2)c1` [compound 126, 3-(3-chlorophenyl)-6-(3-methoxyphenyl)imidazo[1,2-b]pyridazine]: the Emax (in general, the maximal effect, on the per cent scale that the assay sets) was 10 to 20%. With `COc1cc(-c2ccc3nnc(-c4cccc(C(F)(F)F)c4)n3c2)cc(OC)c1OC` [compound 210, 3-[3-(trifluoromethyl)phenyl]-6-(3,4,5-trimethoxyphenyl)-[1,2,4]triazolo[4,3-a]pyridine] the figure was 50 to 100%; with `COc1cc(OC)cc(-c2cn3c(-c4ccc5c(c4)OCO5)cnc3cn2)c1` [compound 308, 3-(1,3-benzodioxol-5-yl)-6-(3,5-dimethoxyphenyl)imidazo[1,2-a]pyrazine], 50 to 100%. With `Cc1ccccc1-c1cn2c(-c3ccc4c(c3)OCO4)cnc2cn1` [compound 305, 3-(1,3-benzodioxol-5-yl)-6-(o-tolyl)imidazo[1,2-a]pyrazine] the figure was 20 to 50%. `O=C(c1ccc(-c2ccc3nnc(-c4cccc(C(F)(F)F)c4)n3c2)cc1)N1CCOCC1` [compound 212, morpholino-[4-[3-[3-(trifluoromethyl)phenyl]-[1,2,4]triazolo[4,3-a]pyridin-6-yl]phenyl]methanone] returned an Emax of 20 to 50%. `CSc1ccccc1-c1cnc2cccnn12` [compound 86, 3-(2-methylsulfanylphenyl)imidazo[1,2-b]pyridazine]: the Emax was 50 to 100%. In turn, `COc1cc(OC)cc(-c2cn3c(-c4cccs4)cnc3cn2)c1` [compound 426, 6-(3,5-dimethoxyphenyl)-3-(2-thienyl)imidazo[1,2-a]pyrazine] gave an Emax of 20 to 50%.

Consider `c1ccc(-c2nnc3ccc(-c4ccc5c(c4)OCO5)cn23)cc1` [compound 164, 6-(1,3-benzodioxol-5-yl)-3-phenyl-[1,2,4]triazolo[4,3-a]pyridine], for which the Emax fell in the range of 50 to 100%. For `c1cc(-c2cn3c(-c4ccc5c(c4)OCO5)cnc3cn2)cs1` [compound 301, 3-(1,3-benzodioxol-5-yl)-6-(3-thienyl)imidazo[1,2-a]pyrazine] the value was 50 to 100%; for `COc1cc(OC)cc(-c2cnc3cnc(-c4ccccc4N(C)C)cn23)c1` [compound 436, 2-[3-(3,5-dimethoxyphenyl)imidazo[1,2-a]pyrazin-6-yl]-N,N-dimethylaniline], 20 to 50%. With `O=C(O)CCc1ccc(-c2cnc3cnc(-c4cccs4)cn23)cc1` [compound 332, 3-[4-[6-(2-thienyl)imidazo[1,2-a]pyrazin-3-yl]phenyl]propanoic acid] the figure was 20 to 50%.

With `CS(=O)(=O)c1ccc(-c2cnc3ccc(Cc4ccccc4)nn23)cc1` [compound 119, 6-benzyl-3-(4-methylsulfonylphenyl)imidazo[1,2-b]pyridazine], the Emax is 10 to 20%. `OC1CCC(Nc2ccc3ncc(Br)n3n2)CC1` (centres unmarked) [compound 32, 4-[(3-bromoimidazo[1,2-b]pyridazin-6-yl)amino]cyclohexanol] displayed an Emax of 10 to 20%.

Turning to `N#Cc1ccc(-c2cnc3cnc(-c4ccsc4)cn23)cc1` [compound 336, 4-[6-(3-thienyl)imidazo[1,2-a]pyrazin-3-yl]benzonitrile], the Emax was 20 to 50%. On to `O=C(Nc1cnc2cnc(-c3ccc4ccccc4c3)cn12)C1CCOC1` (centres unmarked) [compound 275, N-[6-(2-naphthyl)imidazo[1,2-a]pyrazin-3-yl]tetrahydrofuran-3-carboxamide], for which the Emax lay within 10 to 20%. Compound `O=C(Nc1cnc2cnc(-c3ccsc3)cn12)c1cccs1` [compound 263, N-[6-(3-thienyl)imidazo[1,2-a]pyrazin-3-yl]thiophene-2-carboxamide] returned an Emax of 20 to 50%.

For `COc1cc(-c2nnc3ccc(-c4cccc(F)c4)cn23)ccc1O` [compound 217, 4-[6-(3-fluorophenyl)-[1,2,4]triazolo[4,3-a]pyridin-3-yl]-2-methoxy-phenol], the maximal response (Emax) lay in the range of 50 to 100%.

In turn, `c1csc(-c2cnc3cnc(-c4ccncc4)cn23)c1` [compound 414, 6-(4-pyridyl)-3-(2-thienyl)imidazo[1,2-a]pyrazine] had an Emax of 20 to 50%. For `FC(F)(F)c1cccc(-c2cnc3ccc(-c4ccncc4)nn23)c1` [compound 134, 6-(4-pyridyl)-3-[3-(trifluoromethyl)phenyl]imidazo[1,2-b]pyridazine], the Emax fell in the range of 20 to 50%. As to `COc1cc(-c2cnc3cnc(-c4ccc(NCCN5CCOCC5)nc4)cn23)ccc1O` [compound 392, 2-methoxy-4-[6-[6-(2-morpholinoethylamino)-3-pyridyl]imidazo[1,2-a]pyrazin-3-yl]phenol], the Emax lay in the range of 20 to 50%. The compound `COc1cc(-c2cnc3cnc(-c4ccc(N5CCN(C)CC5)nc4)cn23)ccc1O` [compound 393, 2-methoxy-4-[6-[6-(4-methylpiperazin-1-yl)-3-pyridyl]imidazo[1,2-a]pyrazin-3-yl]phenol] returned an Emax of 20 to 50%. `Cc1ccccc1-c1nnc2ccc(-c3cccc(C(=O)NCCO)c3)cn12` [compound 224, N-(2-hydroxyethyl)-3-[3-(o-tolyl)-[1,2,4]triazolo[4,3-a]pyridin-6-yl]benzamide] had an Emax of 10 to 20%.

As for `CC(=O)Nc1ccc(-c2cnc3ccc(-c4ccc5c(c4)OCO5)nn23)cc1` [compound 148, N-[4-[6-(1,3-benzodioxol-5-yl)imidazo[1,2-b]pyridazin-3-yl]phenyl]acetamide], the Emax is at least 100%. On to `COc1cc(CNc2ccc3ncc(-c4ccc(N(C)C)cc4)n3n2)cc(OC)c1OC` [compound 49, 3-(4-dimethylaminophenyl)-N-[(3,4,5-trimethoxyphenyl)methyl]imidazo[1,2-b]pyridazin-6-amine], for which the Emax lay in the range of 10 to 20%.

In the case of `CCOc1cccc(-c2cnc3cccnn23)c1` [compound 76, 3-(3-ethoxyphenyl)imidazo[1,2-b]pyridazine], the maximal response (Emax) was 10 to 20%. `Fc1cccc(-c2cnc3cnc(-c4ccccc4)cn23)c1` [compound 385, 3-(3-fluorophenyl)-6-phenyl-imidazo[1,2-a]pyrazine] came in with an Emax of 20 to 50%. With `Clc1cccc(-c2ccc3nnc(-c4ccc5c(c4)OCO5)n3c2)c1` [compound 170, 3-(1,3-benzodioxol-5-yl)-6-(3-chlorophenyl)-[1,2,4]triazolo[4,3-a]pyridine] the figure was 20 to 50%.

`Clc1ccccc1-c1ccc2nnc(-c3cscn3)n2c1` [compound 233, 4-[6-(2-chlorophenyl)-[1,2,4]triazolo[4,3-a]pyridin-3-yl]thiazole] had an Emax of 50 to 100%. `CS(=O)(=O)c1cccc(-c2ccc3nnc(-c4ccccn4)n3c2)c1` [compound 249, 6-(3-methylsulfonylphenyl)-3-(2-pyridyl)-[1,2,4]triazolo[4,3-a]pyridine] returned an Emax of 20 to 50%.

Take `c1cncc(-c2cnc3ccc(-c4cccs4)nn23)c1` [compound 108, 3-(3-pyridyl)-6-(2-thienyl)imidazo[1,2-b]pyridazine]: the Emax is 20 to 50%. `CCC(CO)Nc1ccc2ncc(-c3ccccc3Cl)n2n1` (centres unmarked) [compound 9, 2-[[3-(2-chlorophenyl)imidazo[1,2-b]pyridazin-6-yl]amino]butan-1-ol]: the Emax was 10 to 20%. The compound `CN(C)c1ccc(-c2cnc3cnc(-c4ccccc4N(C)C)cn23)cc1` [compound 283, 2-[3-(4-dimethylaminophenyl)imidazo[1,2-a]pyrazin-6-yl]-N,N-dimethyl-aniline] had an Emax of 20 to 50%.
